Data as given in patent publication US11155851B2, “Compounds and methods relating to lysosomal storage disorders” (University of Washington through its Center of …, priority 2013, dated 2021).

Experiments:
[1] = target: T1, acid-β-glucocerebrosidase (ABG) (Homo sapiens, UniProt P04062); assay: Detection of enzyme activity in dried blood spots by mass spectrometry (ABG substrate); format: biochemical; settings: FIG. 6, dried blood disk, substrate 500 μmol/L, 15 to 24 hours at 37° Celsius
T1 construct: from tissue; host or cells: dried blood spots from adult human venous blood
T1 sequence (P04062 40-536): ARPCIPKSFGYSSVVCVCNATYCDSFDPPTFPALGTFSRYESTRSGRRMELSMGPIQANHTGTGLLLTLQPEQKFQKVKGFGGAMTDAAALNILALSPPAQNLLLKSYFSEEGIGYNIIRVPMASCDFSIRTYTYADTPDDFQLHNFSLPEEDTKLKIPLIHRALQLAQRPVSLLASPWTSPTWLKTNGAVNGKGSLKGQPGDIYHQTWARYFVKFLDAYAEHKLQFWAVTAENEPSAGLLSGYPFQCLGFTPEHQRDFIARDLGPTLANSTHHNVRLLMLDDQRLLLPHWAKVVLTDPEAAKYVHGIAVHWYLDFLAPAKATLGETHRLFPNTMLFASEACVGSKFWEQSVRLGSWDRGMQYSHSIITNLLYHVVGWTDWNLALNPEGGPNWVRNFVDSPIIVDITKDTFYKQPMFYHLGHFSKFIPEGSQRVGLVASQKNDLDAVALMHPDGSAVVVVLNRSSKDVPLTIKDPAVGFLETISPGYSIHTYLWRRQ
Method: The substrates of Compounds 1 and 7 are used to detect the presence of acid-β-glucocerebrosidase (ABG) and galactocerebroside-β-galactosidase (GALC) respectively. Blood is obtained by venipuncture from consenting adult humans and blotted on filter paper. For each sample, a disk of 3 mm diameter is punched from the areas of dried blood into a well of a 96-well microtiter plate. The blood disk is then incubated directly with an assay solution containing substrates at a final concentration of 500 μmol/L and corresponding internal standards at a final concentration of 5 μmol/L. To the assay solution, a final concentration of 0.5 mol/L sodium acetate buffer with sodium taurocholate is also added. The assay mixture containing the blood disk is incubated for 15 to 24 hours at 37° Celsius with orbital shaking (150 rpm) in a thermostatic air shaker. After the incubation period, an aliquot of pure methanol is added to each tube or well to terminate the enzymatic reaction. Before going into the mass spectrometer, the incubated reaction mixture is diluted with pure methanol. For the mass spectrometry analysis, the electrospray source is operated in positive mode, and the ions are detected in parent-ion scan mode. The amount of enzymatic product is calculated from the ion abundance ratio of the product to the internal standard minus that of a blank.

[2] = target: T1, acid-β-glucocerebrosidase (ABG); assay: Simultaneous detection of multiple enzyme activity in dried blood spots by MS/MS (ABG); format: biochemical; settings: Compounds 1 and 7 used simultaneously, substrates 100 μmol/L, dried blood disk, 15 to 24 hours at 37° Celsius
Method: The substrates of Compounds 1 and 7 are used simultaneously to detect the presence of acid-β-glucocerebrosidase (ABG) and galactocerebroside-β-galactosidase (GALC) respectively. Blood is obtained by venipuncture from consenting adult humans and blotted on filter paper. For each sample, a disk of 3 mm diameter is punched from the areas of dried blood into a well of a 96-well microtiter plate. The blood disk is then incubated directly with an assay solution containing substrates at a final concentration of 100 μmol/L and corresponding internal standards at a final concentration of 1 μmol/L. To the assay solution, a final concentration of 0.5 mol/L sodium acetate with sodium taurocholate buffer is also added (30 μl final assay volume). The assay mixture containing the blood disk is incubated for 15 to 24 hours at 37° Celsius with orbital shaking (150 rpm) in a thermostatic air shaker. After the incubation period, a 100 μl aliquot of 50:50 methanol/ethyl acetate is added to each tube or well to terminate the enzymatic reaction. The reaction is then supplemented with 400 μl HPLC grade ethyl acetate and 200 μl water. […] For mass spectrometry analysis, the electrospray source is operated in positive mode, and the ions are detected in parent-ion scan mode. The amount of enzymatic product is calculated from the ion abundance ratio of the product to the internal standard minus that of a blank.

- improvement in product detection over a similar compound substituting the C5 amido for a C12 amido [1]: 2 fold
Structure (SMILES): CCCCCCCCCCCCC/C=C/C(O)C(CO[C@@H]1OC(CO)[C@@H](O)C(O)C1O)NC(=O)CCCC (some centres unmarked) [Compound 1]
- detection of ABG (enzymatic product by MS/MS) [2]: Detection of both ABG and GALC is achieved
